Reference: patent publication US5561131A, “Defaunation method” (Mallinckrodt Veterinary, Inc., priority 1991, dated 1996)
Where “and” joins values, the source holds several entries; their conditions need not be identical. Equal entries are not always repeated.

How the values were obtained:
rumen ciliate protozoa = experiment: In vitro activity of defaunation compounds against rumen ciliate protozoa; format: cell-based; conditions: 39° C., anaerobic, 3 hours, tested at 50, 150, 250 and 500 ppm
Method: Compounds of Table 1 were tested for their toxicity against rumen ciliate protozoa by firstly isolating protozoa from rumen liquor collected from faunated animals. The rumen liquor was then centrifuged at 500 g for five minutes and the supernatant discarded. The protozoal-rich sediment was then reconstituted in McDougal's artificial saliva. Residual bacteria were suppressed by using a combination of two antibiotics at low concentration. Nitrogen and energy substrate was optimized for the protozoal preparation. At all times the protozoal preparation was maintained at 39° C. and kept anaerobic.
Sixty milligrams of each the compounds of Table 1 were dissolved in 1.2 ml of dimethyl sulphoxide and dispersed in triplicate to achieve a final concentration of 50, 150, 250 and 500 ppm. Ten milliliters of protozoal preparation was then added to each tube. After every second compound, control tubes were included which contained everything except for compound. The tubes, to which a 5 ml glass syringe was attached, were then incubated for 3 hours in a water bath at 39° C. The production of gas causes the syringe plunger to be displaced.
At the end of the incubation period, the volume of gas produced was recorded and the viability of the protozoa assessed visually using a microscope. The toxicity of the compounds to protozoa was assessed from both the reduction in gas produced relative to the control and by direct observation of the protozoa for movement of cilia.

protozoa [1] = experiment: Pilot field testing: elimination of protozoal population in sheep; format: in vivo; conditions: for Elimination of protozoa: one week after single dose of 167 mg/kg
Method: In this trial the effect of defaunation agents after 1 and 2 weeks was examined in sheep in pilot field studies.
Thirty mature fine wooled merino weather sheep consuming a forage diet were given a single dose of either compound 27 or 37. The dose rate was 167 mg/kg and each compound was dispersed in 20 mL of ethanol and 200 mL of centrifuged rumen liquor. The compounds were then administered into the rumen using a flexible stomach tube.

mice = experiment: Mouse safety assessment; format: in vivo; conditions: oral gavage, 830, 415 and 217 mg/kg, observed for 2 days
Method: Compounds of Table 1 chosen for testing in sheep were first tested in mice for signs of toxicity. Because sheep are approximately 5 times more sensitive than mice to compounds dosed orally, the dose rates applied to mice were 5 times greater than the target dose rate of 500 ppm. in rumen liquor (83 mg/kg live weight) used for sheep. Each compound was screened at three different dose levels, high (830 mg/kg), medium (415 mg/kg) and low (217 mg/kg).
252 mg of compound was used for dilution into a high medium and low dose rate. 252 mg of compound was mixed with 3 ml of G1284 solution (4% w/v ethoxylated castor oil and 0.05% w/v simethicone), to form the high dose composition. The medium dose composition was formed by diluting 1.5 ml of the high dose with 1.5 ml of G1284 solution. The low dose composition was formed by diluting 1.5 ml of the medium dose with 1.5 ml of G1284 solution. Before the high dose could be diluted it was first manually ball milled in an effort to produce a fine suspension of the compound.
All mice were weighed before dosing to calculate the appropriate dose rate. The calculation for dose rate was: [formula]
Each mouse was dosed using the Gavage method. With this method the mouse is dosed orally by way of an angled hypodermic needle (18 g) with a smooth spherical end. It is gently placed down the esophagus. All care must be taken not to force the needle and injure the esophagus or dose into the lungs.
Observations were made at 10, 30, 60 and 120 minutes after dosing, then every 1 or 2 hours for the first 6 hours.
Mice were usually observed for 2 days.
Typically, few compounds fell within the poor classification. The majority of compounds tested were either in the fair or good classification.

[2] = Growth and carcass measurements in lambs; format: in vivo, lambs (sheep); conditions: 332 mg/kg
Method: (§1) Three cross-bred lambs were defaunated with compound 37 at dose rate of 332 mg per kg liveweight. The lambs were allowed four weeks to adapt to defaunation before commencing the trial. The lambs were grazed at pasture. Then control (faunated) cohorts of the defaunated group, which were matched for liveweight, were grazed in the same paddock, but separated from the defaunated lambs by a double-fence (4 meter separation). This was to prevent the faunated lambs contaminating the defaunated lambs.
At 16 weeks post-defaunation both groups of the lambs were sacrificed and measurements taken.
Also shown is the cross-sectional area of the longissimus dorsi (loin eye muscle) measured between the 12th and 13th rib.

protozoa [3] = experiment: Reliability of defaunation using 2 repeated doses in sheep; format: in vivo; conditions: Group 1, 2 doses, 4 weeks
Method: (§2) Sheep were fed a diet of 900 g oaten chaff daily, except that food and water were withheld for 19 hours before and 24 hours after dosing. Each dose was prepared by mixing compound 37 with 20 ml of ethanol followed by 200 ml of centrifuged rumen liquor, to give a dose of 167 mg/kg body weight, administered by rumen tube. Rumen protozoa were counted weekly following the final treatment.
Sixty (60) Sheep, in three successive trials of 20 each, were treated with 2 doses of compound 37, one week apart, according to the method of Example 14. Protozoa were counted at 4 or 5 weeks after the second treatment.

protozoa [4] = experiment: Protozoal population number in growing lambs; format: in vivo, lambs (sheep)
Method: as §1, with “Ten” for “Then”, “lambs. Both groups of lambs were weighed on four occasions at three weekly intervals. Protozoa were also monitored at the same time.” for “lambs.”

rumen protozoa = experiment: Defaunation using single or 2 or 3 repeated doses in sheep; format: in vivo; conditions: individual sheep
Method: as §2
Table 9: The effect of administering compound 37 (from table 1) on mean protozoal numbers in rumen in sheep.

[5] = Liveweight gain of growing lambs; format: in vivo, lambs (sheep); conditions: 332 mg/kg
Method: as §1, with “Ten” for “Then”, “lambs. Both groups of lambs were weighed on four occasions at three weekly intervals. Protozoa were also monitored at the same time.” for “lambs.”

## Cc1ccc(Nc2nc(Cl)nc(Cl)n2)cc1Cl [Compound 27, 2,4 dichloro-6-(3 chloro-4-methylanilino)-s-triazine]
Rumen ciliate protozoa
  Conc Required to Kill all Protozoa: 150 ppm
Protozoa [1]
  Elimination of protozoa: total elimination of protozoa in all sheep
Protozoa [1]; week 0, 167 mg/kg
  Protozoal number: 285 per mL × 10^3
Protozoa [1]; week 1, 167 mg/kg
  Protozoal number: 0 per mL × 10^3
Protozoa [1]; week 2, 167 mg/kg
  Protozoal number: 0 per mL × 10^3
mice
  Mouse Safety Assessment: Fair (>2 mice sick)

## Clc1nc(Cl)nc(Nc2ccccc2Cl)n1 [Compound 37, 2,4-dichloro-6-(2-chloroanilino)-1,3,5-triazine]
[2]; vs control, p < 0.01
  ADG, response to defaun.: 72%
  Carcass dressing out percentage, response to defaun.: 16%
  Loin eye muscle area, response to defaun.: 26%
[2]; defaunation
  ADG (average daily gain): 165 g/day
[2]; defaunation, 16 weeks, between 12th and 13th rib
  Loin eye muscle area: 12.5 CM^2
[2]; defaunation, 16 weeks, cold carcass weight as percentage of liveweight
  Carcass dressing out percentage: 44.5%
Protozoa [3]
  Residual protozoal population (in words): one sheep had a residual protozoal population
Rumen ciliate protozoa
  Conc Required to Kill all Protozoa: 250 ppm
Protozoa [4]; week 0, 332 mg/kg
  Protozoal numbers: 0 per mL × 10^3
Protozoa [4]; week 3, 332 mg/kg
  Protozoal numbers: 0 per mL × 10^3
Protozoa [4]; week 6, 332 mg/kg
  Protozoal numbers: 0 per mL × 10^3
Protozoa [4]; week 9, 332 mg/kg
  Protozoal numbers: 0 per mL × 10^3
Protozoa [4]; week 12, 332 mg/kg
  Protozoal numbers: 0 per mL × 10^3
Protozoa [1]
  Elimination of protozoa: total elimination of protozoa in all sheep
Protozoa [1]; week 0, 167 mg/kg
  Protozoal number: 190 per mL × 10^3
Protozoa [1]; week 1, 167 mg/kg
  Protozoal number: 0 per mL × 10^3
Protozoa [1]; week 2, 167 mg/kg
  Protozoal number: 0 per mL × 10^3
Rumen protozoa; 2 doses 1 wk apart at 167 mg/kg/dose, week 0, 167 mg/kg
  Protozoal Count: 64,000 number/mL of rumen fluid and 68,500 number/mL of rumen fluid and 94,000 number/mL of rumen fluid
Rumen protozoa; 2 doses 1 wk apart at 167 mg/kg/dose, week 1
  Protozoal Count: 0 number/mL of rumen fluid
Rumen protozoa; 2 doses 1 wk apart at 167 mg/kg/dose, week 2
  Protozoal Count: 0 number/mL of rumen fluid
Rumen protozoa; 2 doses 1 wk apart at 167 mg/kg/dose, week 3
  Protozoal Count: 0 number/mL of rumen fluid
Rumen protozoa; 2 doses 1 wk apart at 167 mg/kg/dose, week 4
  Protozoal Count: 0 number/mL of rumen fluid
Rumen protozoa; 3 doses 1 wk apart at 167 mg/kg per dose, week 0, 167 mg/kg
  Protozoal Count: 259,000 number/mL of rumen fluid and 242,500 number/mL of rumen fluid and 122,500 number/mL of rumen fluid
Rumen protozoa; 3 doses 1 wk apart at 167 mg/kg per dose, week 1
  Protozoal Count: 0 number/mL of rumen fluid
Rumen protozoa; 3 doses 1 wk apart at 167 mg/kg per dose, week 2
  Protozoal Count: 0 number/mL of rumen fluid
Rumen protozoa; 3 doses 1 wk apart at 167 mg/kg per dose, week 3
  Protozoal Count: 0 number/mL of rumen fluid
Rumen protozoa; 3 doses 1 wk apart at 167 mg/kg per dose, week 4
  Protozoal Count: 0 number/mL of rumen fluid
Rumen protozoa; single dose 167 mg/kg, week 0, 167 mg/kg
  Protozoal Count: 151,500 number/mL of rumen fluid and 300,000 number/mL of rumen fluid and 149,500 number/mL of rumen fluid
Rumen protozoa; single dose 167 mg/kg, week 1
  Protozoal Count: 0 number/mL of rumen fluid
Rumen protozoa; single dose 167 mg/kg, week 2, 167 mg/kg
  Protozoal Count: 370,000 number/mL of rumen fluid and 0 number/mL of rumen fluid and 4,500 number/mL of rumen fluid
Rumen protozoa; single dose 167 mg/kg, week 3
  Protozoal Count: 88,800 number/mL of rumen fluid
[5]; over controls, P<0.01
  Rate of liveweight gain (in words): highly significant improvement in the rate of liveweight gain
[5]; relative to control
  ADG Increase: 65%
[5]; weeks 0-12
  ADG: 165 g/day
